This assay relates to B6C3F1 mice, B16 melanoma ip, median survival T/C. Kind of assay: NCI In Vivo Anticancer Drug Screen. Data for tumor model B16 Melanoma (intraperitoneal) in B6C3F1 mice. The note with it: endpoint: median survival time, higher = longer survival. The method in brief:
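Readout: survival or tumor size in treated mice relative to vehicle controls (T/C). Model uses transplantable tumors grown in mice.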

The mark [1] stands for this setting: dose: 12.0 mg/kg/injection, schedule: Q01DX009 (ip), vehicle: saline with Tween-80.
[2] abbreviates: dose: 12.5 mg/kg/injection, schedule: Q01DX009 (ip), vehicle: saline with Tween-80.
[3] abbreviates: dose: 25.0 mg/kg/injection, schedule: Q01DX009 (ip), vehicle: saline with Tween-80.
The mark [4] stands for this setting: dose: 50.0 mg/kg/injection, schedule: Q01DX009 (ip), vehicle: saline with Tween-80.
Where [5] appears, read: dose: 50.0 mg/kg/injection, schedule: Q01DX009 (ip), vehicle: Klucel (hydroxypropylcellulose) (HPC).
Setting [6] is: dose: 100.0 mg/kg/injection, schedule: Q01DX009 (ip), vehicle: Klucel (hydroxypropylcellulose) (HPC).
[7] abbreviates: dose: 200.0 mg/kg/injection, schedule: Q01DX009 (ip), vehicle: Klucel (hydroxypropylcellulose) (HPC).
The mark [8] stands for this setting: dose: 400.0 mg/kg/injection, schedule: Q01DX009 (ip), vehicle: Klucel (hydroxypropylcellulose) (HPC).
Setting [9] is: dose: 25.0 mg/kg/injection, schedule: Q01DX009 (ip), vehicle: Klucel (hydroxypropylcellulose) (HPC).
[10] abbreviates: dose: 100.0 mg/kg/injection, schedule: Q01DX009 (ip), vehicle: saline with Tween-80.
The mark [11] stands for this setting: dose: 200.0 mg/kg/injection, schedule: Q01DX009 (ip), vehicle: saline with Tween-80.
Where [12] appears, read: dose: 400.0 mg/kg/injection, schedule: Q01DX009 (ip), vehicle: saline with Tween-80.
[13] abbreviates: dose: 2.0 mg/kg/injection, schedule: Q01DX009 (ip), vehicle: saline.
Where [14] appears, read: dose: 4.0 mg/kg/injection, schedule: Q01DX009 (ip), vehicle: saline.
Setting [15] is: dose: 8.0 mg/kg/injection, schedule: Q01DX009 (ip), vehicle: saline.

Values joined by “and” are separate entries in the source; they are usually repeats but may differ in a detail not shown here. Equal entries are not always repeated. Inconclusive results and toxic doses are left out. Where a SMILES comes first, the peptide text is derived from it. The star is where a group is joined. Cbz = O=C(OCc1ccccc1)*; Bn = c1ccc(C*)cc1

For the compound `N[C@@H](Cc1c[nH]c2ccccc12)C(=O)Nc1nncs1`, the T/C is, setting by setting: (dose: 50.0 mg/kg/injection, schedule: Q01DX009 (ip), vehicle: suspension in saline) 94 % of control; (dose: 100.0 mg/kg/injection, schedule: Q01DX009 (ip), vehicle: suspension in saline) 95 % of control; (dose: 200.0 mg/kg/injection, schedule: Q01DX009 (ip), vehicle: suspension in saline) 103 % of control; (dose: 400.0 mg/kg/injection, schedule: Q01DX009 (ip), vehicle: suspension in saline) 106 % of control; (dose: 800.0 mg/kg/injection, schedule: Q01DX009 (ip), vehicle: suspension in saline) 109 % of control.
On to `Nc1nnc[se]1`, for which the T/C (dose: 3.0 mg/kg/injection, schedule: Q01DX009 (ip), vehicle: saline with Tween-80) is 98 % of control; the T/C (dose: 3.12 mg/kg/injection, schedule: Q01DX009 (ip), vehicle: saline with Tween-80) was 101 % of control; the T/C (dose: 6.25 mg/kg/injection, schedule: Q01DX009 (ip), vehicle: saline with Tween-80) was 101 % of control and 102 % of control; the T/C under setting [1] is 103 % of control; the T/C under setting [2] is 109 % of control and 102 % of control; the T/C under setting [3] was 108 % of control (2×) and 105 % of control. Besides, the T/C under setting [4] is 108 % of control and 115 % of control.
Regarding `Cc1ccc(S(=O)(=O)OCOS(=O)(=O)c2ccc(C)cc2)cc1`, the T/C by setting is: under setting [5], 120 % of control and 122 % of control; under setting [6], 117 % of control; under setting [7], 154 % of control; under setting [8], 191 % of control.
For the compound `CCOC(=O)C(Cc1c[nH]c2ccccc12)NC(=O)C(Cc1ccccc1)NC(=O)C(Cc1cnc[nH]1)NC(=O)OCc1ccccc1` (stereo not drawn) (Cbz-His-Phe-Trp-OEt; configuration not given here), the T/C under setting [7] is 90 % of control.
As to `COc1nc(C(Cl)(Cl)Cl)c(Cl)c(OC)c1Cl`, the T/C is, setting by setting: under setting [9], 96 % of control; under setting [5], 104 % of control.
For `C=CCSc1ncnc2c1ncn2C1OC(CO)C(O)C1O` (stereo not drawn), the T/C by setting is: (dose: 37.5 mg/kg/injection, schedule: Q01DX009 (ip), vehicle: saline with Tween-80) 102 % of control; (dose: 75.0 mg/kg/injection, schedule: Q01DX009 (ip), vehicle: saline with Tween-80) 90 % of control; (dose: 150.0 mg/kg/injection, schedule: Q01DX009 (ip), vehicle: saline with Tween-80) 97 % of control.
`Cc1cc(C)c(-c2cc(O)c(C)cc2O)c(C)c1`: the T/C runs as follows: (dose: 12.5 mg/kg/injection, schedule: Q01DX009 (ip), vehicle: Klucel (hydroxypropylcellulose) (HPC)) 99 % of control; under setting [9], 101 % of control; under setting [5], 103 % of control; under setting [6], 99 % of control; under setting [7], 100 % of control.
Take `CCCCCC1c2cc(O)ccc2OC1N1CCOCC1` (stereo not drawn): the T/C by setting is: (dose: 6.0 mg/kg/injection, schedule: Q01DX009 (ip), vehicle: saline with Tween-80) 90 % of control; under setting [1], 103 % of control; under setting [2], 106 % of control; under setting [3], 96 % of control and 107 % of control; under setting [4], 98 % of control and 102 % of control; under setting [10], 94 % of control and 106 % of control. Moreover, under setting [11], the T/C was 96 % of control and 97 % of control.
With `CC(=O)N(C)C`, the T/C was 89 % of control (dose: 122.5 mg/kg/injection, schedule: Q01DX009 (ip), vehicle: saline); 95 % of control (dose: 225.0 mg/kg/injection, schedule: Q01DX009 (ip), vehicle: saline); 95 % of control (dose: 450.0 mg/kg/injection, schedule: Q01DX009 (ip), vehicle: saline); 105 % of control (dose: 900.0 mg/kg/injection, schedule: Q01DX009 (ip), vehicle: saline); 114 % of control (dose: 1800.0 mg/kg/injection, schedule: Q01DX009 (ip), vehicle: saline).
As to `O=NNc1ccccn1`, the T/C is 120 % of control and 96 % of control (dose: 1.56 mg/kg/injection, schedule: Q01DX009 (ip), vehicle: water); 116 % of control and 120 % of control and 124 % of control (dose: 3.12 mg/kg/injection, schedule: Q01DX009 (ip), vehicle: water).
Regarding `Cc1cc(Nc2ccc3c(c2)OCO3)c2cc3c(cc2n1)OCO3`, the T/C is 105 % of control under setting [9] and 101 % of control under setting [5].
`O=C(NC(CSCc1ccccc1)C(=O)NC(Cc1ccc(O)cc1)C(=O)O)OCc1ccccc1` (stereo not drawn) (Cbz-Cys(Bn)-Tyr-OH; configuration not given here): the T/C is 90 % of control under setting [10], 101 % of control under setting [11] and 87 % of control under setting [12].
In the case of `CCCCC(NC(=O)C(C)N)C(=O)O` (stereo not drawn), the T/C is, setting by setting: under setting [5], 102 % of control; under setting [6], 107 % of control; under setting [7], 96 % of control; under setting [8], 93 % of control.
In the case of `CN(C)CCC(=O)C(=Cc1ccc(O)cc1)C(=O)CCN(C)C`, the T/C (dose: 12.5 mg/kg/injection, schedule: Q01DX009 (ip), vehicle: saline) was 101 % of control; the T/C (dose: 25.0 mg/kg/injection, schedule: Q01DX009 (ip), vehicle: saline) was 97 % of control; the T/C (dose: 50.0 mg/kg/injection, schedule: Q01DX009 (ip), vehicle: saline) is 101 % of control; the T/C (dose: 100.0 mg/kg/injection, schedule: Q01DX009 (ip), vehicle: saline) was 97 % of control; the T/C (dose: 200.0 mg/kg/injection, schedule: Q01DX009 (ip), vehicle: saline) was 102 % of control.
Regarding `CC(C)OC(CCCl)c1ccccc1` (stereo not drawn), the T/C under setting [10] was 94 % of control, the T/C under setting [11] was 87 % of control and the T/C under setting [12] was 100 % of control.
As for `Cc1[nH]ccc2c(C)c3nc4ccccc4c3cc12`, under setting [9], the T/C was 159 % of control.
Consider `COc1cccc2c1C(=O)c1c(O)c3c(c(O)c1C2=O)C[C@@](O)(/C(C)=N/NC(=O)c1ccc(Cl)cc1)C[C@@H]3OC1CC(N)C(O)C(C)O1` (stereo partly drawn), for which the T/C runs as follows: (dose: 0.5 mg/kg/injection, schedule: Q01DX009 (ip), vehicle: saline) 105 % of control; under setting [13], 183 % of control; under setting [14], 216 % of control; under setting [15], 151 % of control.
With `O=[Te]=O`, the T/C is 110 % of control (dose: 3.12 mg/kg/injection, schedule: Q01DX009 (ip), vehicle: saline) and 109 % of control (dose: 6.25 mg/kg/injection, schedule: Q01DX009 (ip), vehicle: saline).
Turning to `CCCCCCCCCCCCCCCCNc1cccc2ccccc12`, the T/C was 96 % of control under setting [2]; 95 % of control under setting [3]; 94 % of control and 97 % of control under setting [4]; 92 % of control under setting [10].
Take `C1CN1P1(N2CC2)=NP(N2CC2)(N2CC2)=NP(N2CC2)(N2CC2)=NP(N2CC2)(N2CC2)=N1`: the T/C reads like this: (dose: 1.0 mg/kg/injection, schedule: Q01DX009 (ip), vehicle: saline) 95 % of control and 98 % of control; (dose: 1.0 mg/kg/injection, schedule: Q02DX009 (ip), vehicle: saline) 91 % of control and 97 % of control; under setting [13], 92 % of control and 96 % of control; (dose: 2.0 mg/kg/injection, schedule: Q02DX009 (ip), vehicle: saline) 91 % of control and 97 % of control; under setting [14], 109 % of control and 95 % of control; (dose: 4.0 mg/kg/injection, schedule: Q02DX009 (ip), vehicle: saline) 91 % of control and 98 % of control. For the same compound, the T/C by setting is: under setting [15], 89 % of control and 107 % of control; (dose: 8.0 mg/kg/injection, schedule: Q02DX009 (ip), vehicle: saline) 90 % of control and 97 % of control; (dose: 16.0 mg/kg/injection, schedule: Q01DX009 (ip), vehicle: saline) 91 % of control and 100 % of control; (dose: 16.0 mg/kg/injection, schedule: Q02DX009 (ip), vehicle: saline) 112 % of control; (dose: 32.0 mg/kg/injection, schedule: Q01DX009 (ip), vehicle: saline) 109 % of control and 91 % of control; (dose: 32.0 mg/kg/injection, schedule: Q02DX009 (ip), vehicle: saline) 88 % of control and 103 % of control. Also, the T/C reads like this: (dose: 64.0 mg/kg/injection, schedule: Q01DX009 (ip), vehicle: saline) 109 % of control and 90 % of control; (dose: 64.0 mg/kg/injection, schedule: Q02DX009 (ip), vehicle: saline) 94 % of control and 100 % of control.
